Experimental data published in ChEMBL document CHEMBL6071153, “Design, synthesis, and evaluation of antitumor activity in Pseudolaric acid B Azole derivatives: Novel and potent angiogenesis inhibitor via regulation of the PI3K/AKT and MAPK mediated HIF-1/VEGF signaling pathway” (Eur J Med Chem, 2024).
Active and inactive are the calls of the source. The calls are words filed in the database; no cut-off is given here.

How the values were obtained:
[1] = test system: SiHa; experiment: Cytotoxicity against human SiHa cells assessed as inhibition of cell growth incubated for 24 hrs under normoxic condition by MTT assay; assay type: functional, cell-based
[2] = Inhibition of VEGFR mediated endocytosis in human SiHa cells incubated for 24 hrs under hypoxic condition by ELISA; assay type: cell-based
[3] = Inhibition of HIF-1 transcriptional activity in human HCT-116 cells preincubated for 1 hr under normoxic condition followed by 24 hrs incubation under hypoxic condition by luciferase reporter assay; assay type: cell-based
[4] = Toxicity in Balb/c mouse xenografted with human SiHa cells assessed as reduction in body weight at 30 mg/kg,ip administration measured after 22 days; assay type: organism-based; conditions: in vivo, 528 h, time 22 day
[5] = Toxicity in Balb/c mouse assessed as change in animal fur at 50 mg/kg,ip administration for 1 week; assay type: organism-based; conditions: in vivo, 168 h, time 1 weeks
[6] = test system: SiHa; experiment: Antitumor activity against human SiHa cells xenografted in Balb/c mouse assessed as reduction in tumor growth at 30 mg/kg,ip administration measured after 22 days; assay type: functional, organism-based; conditions: time 22.0 day
[7] = Toxicity in Balb/c mouse assessed as fatality at 50 mg/kg,ip administration for 1 week; assay type: organism-based; conditions: in vivo, 168 h, time 1 weeks
[8] = test system: HUVEC; experiment: Antiangiogenic activity against human HUVEC cells assessed as inhibition of blood vessel formation at 10 uM incubated for 4 hrs under hypoxic condition by fluorescence microscopic analysis; assay type: functional, cell-based
[9] = test system: SiHa; experiment: Antitumor activity against human SiHa cells xenografted in Balb/c mouse assessed as reduction in tumor weight at 30 mg/kg,ip administration measured after 22 days; assay type: functional, organism-based; conditions: time 22.0 day
[10] = test system: SiHa; experiment: Inhibition of VEGFR in human SiHa cells assessed as decrease in intracellular VEGFR protein expression at 10 uM incubated for 24 hrs under hypoxic condition by immunofluorescence staining based analysis relative to M2; assay type: cell-based
[11] = test system: SiHa; experiment: Inhibition of hypoxia-induced HIF-1alpha accumulation in human SiHa cells at 10 uM incubated for 24 hrs under hypoxic condition by Western blotting analysis; assay type: functional, cell-based
[12] = test system: SiHa; experiment: Antitumor activity against human SiHa cells xenografted in Balb/c mouse assessed as reduction in tumor volume at 30 mg/kg,ip administration measured after 22 days; assay type: functional, organism-based; conditions: time 22.0 day
[13] = test system: SiHa; experiment: Inhibition of hypoxia-induced HIF-1beta accumulation in human SiHa cells at 10 uM incubated for 24 hrs under hypoxic condition by Western blotting analysis; assay type: functional, cell-based
[14] = test system: HUVEC; experiment: Inhibition of cell migration in human HUVEC cells at 10 uM incubated for 48 hrs under hypoxic condition by microscopic analysis relative to PAB; assay type: functional
[15] = test system: HUVEC; experiment: Inhibition of cell migration in human HUVEC cells at 10 uM incubated for 48 hrs under hypoxic condition by microscopic analysis relative to M2; assay type: functional, cell-based
[16] = Inhibition of PI3K/AKT/mTOR signalling pathway in human SiHa cells assessed as downregulation of JNK phosphorylation at 10 uM incubated for 24 hrs under hypoxic condition by Western blotting analysis; assay type: cell-based

| SMILES | IC50 [1] | IC50 [2] | also measured |
| --- | --- | --- | --- |
| COC(=O)C1=CC[C@@]23CC[C@@H]([C@@](C)(/C=C/C=C(\C)C(=O)NCc4cn(-c5ccc(F)cc5)nn4)OC2=O)[C@@]3(OC(C)=O)CC1 | > 30 µM | 4.14 µM |  |
| COC(=O)C1=CC[C@@]23CC[C@@H]([C@@](C)(/C=C/C=C(\C)C(=O)OCC(=O)NCc4cn(-c5ccccc5)nn4)OC2=O)[C@@]3(OC(C)=O)CC1 | > 30 µM | 2.8 µM |  |
| COC(=O)C1=CC[C@@]23CC[C@@H]([C@@](C)(/C=C/C=C(\C)C(=O)OCC(=O)Nc4ccc(OC)cc4)OC2=O)[C@@]3(OC(C)=O)CC1 | > 30 µM | 1.86 µM |  |
| COC(=O)C1=CC[C@@]23CC[C@@H]([C@@](C)(/C=C/C=C(\C)C(=O)OCc4nc(-c5ccccc5)no4)OC2=O)[C@@]3(OC(C)=O)CC1 | > 30 µM | 2 µM |  |
| OC1CCN(CCOc2cccc(Cn3nc(-c4nc(-c5ccc(OC(F)(F)F)cc5)no4)c4ccccc43)c2)CC1 |  |  | IC50 [3]: 0.55 µM |
| COC(=O)C1=CC[C@@]23CC[C@@H]([C@@](C)(/C=C/C=C(\C)C(=O)OCc4nnc(-c5ccc(OC)cc5)o4)OC2=O)[C@@]3(OC(C)=O)CC1 | > 30 µM | > 5 µM |  |
| COC(=O)C1=CC[C@@]23CC[C@@H]([C@@](C)(/C=C/C=C(\C)C(=O)OCCn4ncn(-c5ccc(OC)cc5)c4=O)OC2=O)[C@@]3(OC(C)=O)CC1 | > 30 µM | > 5 µM |  |
| COC(=O)C1=CC[C@@]23CC[C@@H]([C@@](C)(/C=C/C=C(\C)C(=O)OCc4nc(-c5ccc(Cl)c(Cl)c5)no4)OC2=O)[C@@]3(OC(C)=O)CC1 | > 30 µM | 3.03 µM |  |
| CN1CCN(CCOc2cccc(Cn3nc(-c4nc(-c5ccc(OC(F)(F)F)cc5)no4)c4ccccc43)c2)CC1 |  |  | IC50 [3]: 0.62 µM |
| COC(=O)C1=CC[C@@]23CC[C@@H]([C@@](C)(/C=C/C=C(\C)C(=O)OCc4cn(-c5ccc(Cl)cc5)nn4)OC2=O)[C@@]3(OC(C)=O)CC1 | > 30 µM | 2.15 µM |  |
| O=c1[nH]cc(F)c(=O)[nH]1 [FLUOROURACIL] |  |  | Activity [4]: Non-Toxic |
| COC(=O)C1=CC[C@@]23CC[C@@H]([C@@](C)(/C=C/C=C(\C)C(=O)OCCn4ncn(-c5ccc(Cl)cc5)c4=O)OC2=O)[C@@]3(OC(C)=O)CC1 | > 30 µM | 1.86 µM |  |
| COC(=O)C1=CC[C@@]23CC[C@@H]([C@@](C)(/C=C/C=C(\C)C(=O)OCc4cn(-c5ccccc5)nn4)OC2=O)[C@@]3(OC(C)=O)CC1 | > 30 µM | > 5 µM |  |
| COC(=O)C1=CC[C@@]23CC[C@@H]([C@@](C)(/C=C/C=C(\C)C(=O)OCc4cn(Cc5ccccc5)nn4)OC2=O)[C@@]3(OC(C)=O)CC1 | > 30 µM | > 5 µM |  |
| COC(=O)C1=CC[C@@]23CC[C@@H]([C@@](C)(/C=C/C=C(\C)C(=O)OCc4nc(-c5ccc(OC)cc5)no4)OC2=O)[C@@]3(OC(C)=O)CC1 | > 30 µM | 4.16 µM |  |
| COC(=O)C1=CC[C@@]23CC[C@@H]([C@@](C)(/C=C/C=C(\C)C(=O)OCC(=O)Nc4ccccc4)OC2=O)[C@@]3(OC(C)=O)CC1 | > 30 µM | 4.03 µM |  |
| COC(=O)C1=CC[C@@]23CC[C@@H]([C@@](C)(/C=C/C=C(\C)C(=O)OCc4nnc(-c5ccc(Cl)cc5)o4)OC2=O)[C@@]3(OC(C)=O)CC1 | > 30 µM | > 5 µM |  |
| COC(=O)C1=CC[C@@]23CC[C@@H]([C@@](C)(/C=C/C=C(\C)C(=O)NCc4cn(-c5ccccc5)nn4)OC2=O)[C@@]3(OC(C)=O)CC1 | > 30 µM | 2.91 µM |  |
| COC(=O)C1=CC[C@@]23CC[C@@H]([C@@](C)(/C=C/C=C(\C)C(=O)OCc4cn(Cc5ccc(Cl)c(Cl)c5)nn4)OC2=O)[C@@]3(OC(C)=O)CC1 | > 30 µM | 2.79 µM |  |
| COC(=O)C1=CC[C@@]23CC[C@@H]([C@@](C)(/C=C/C=C(\C)C(=O)OCc4cn(Cc5ccc(OC)cc5)nn4)OC2=O)[C@@]3(OC(C)=O)CC1 | > 30 µM | 1.75 µM |  |
| COC(=O)C1=CC[C@@]23CC[C@@H]([C@@](C)(/C=C/C=C(\C)C(=O)OCc4nc(-c5ccc(Cl)cc5)no4)OC2=O)[C@@]3(OC(C)=O)CC1 | > 30 µM | 1.51 µM |  |

| SMILES | IC50 [1] | IC50 [2] | also measured |
| --- | --- | --- | --- |
| COC(=O)C1=CC[C@@]23CC[C@@H]([C@@](C)(/C=C/C=C(\C)C(=O)NCc4cn(-c5ccc(OC)cc5)nn4)OC2=O)[C@@]3(OC(C)=O)CC1 | > 30 µM | 5.06 µM |  |
| COC(=O)C1=CC[C@@]23CC[C@@H]([C@@](C)(/C=C/C=C(\C)C(=O)OCc4cc(-c5ccc(Cl)cc5)no4)OC2=O)[C@@]3(OC(C)=O)CC1 | > 30 µM | 4.44 µM |  |
| COC(=O)C1=CC[C@@]23CC[C@@H]([C@@](C)(/C=C/C=C(\C)C(=O)OCCn4ncn(-c5ccccc5)c4=O)OC2=O)[C@@]3(OC(C)=O)CC1 | > 30 µM | 4.03 µM |  |
| COC(=O)C1=CC[C@@]23CC[C@@H]([C@@](C)(/C=C/C=C(\C)C(=O)OCc4cn(Cc5cc(OC)c(OC)c(OC)c5)nn4)OC2=O)[C@@]3(OC(C)=O)CC1 | > 30 µM | 2.3 µM |  |
| COC(=O)C1=CC[C@@]23CC[C@@H]([C@@](C)(/C=C/C=C(\C)C(=O)OCC(=O)NCc4cn(-c5ccc(OC)cc5)nn4)OC2=O)[C@@]3(OC(C)=O)CC1 | > 30 µM | 3.4 µM |  |
| COC(=O)C1=CC[C@@]23CC[C@@H]([C@@](C)(/C=C/C=C(\C)C(=O)OCc4nc(-c5ccc(Cn6cncn6)cc5)no4)OC2=O)[C@@]3(OC(C)=O)CC1 | > 30 µM | > 5 µM |  |
| COC(=O)C1=CC[C@@]23CC[C@@H]([C@@](C)(/C=C/C=C(\C)C(=O)O)OC2=O)[C@@]3(OC(C)=O)CC1 [PSEUDOLARIC ACID B] | > 30 µM | 5.54 µM | Activity [4]: Non-Toxic; Activity [5]: Non-Toxic; Activity [6]: Active; Activity [7]: Non-Toxic; Activity [8]: Active; Activity [9]: Active; inhibition [10]: Active; inhibition [11]: Active; Activity [12]: Active; inhibition [13]: Active; inhibition at 10 µM [14]: 68.5%; inhibition [15]: Active; inhibition [16]: inactive |
| COC(=O)C1=CC[C@@]23CC[C@@H]([C@@](C)(/C=C/C=C(\C)C(=O)NCc4cn(-c5ccc(Cl)cc5)nn4)OC2=O)[C@@]3(OC(C)=O)CC1 | > 30 µM | 3.74 µM |  |
| COC(=O)C1=CC[C@@]23CC[C@@H]([C@@](C)(/C=C/C=C(\C)C(=O)OCCn4ncn(-c5ccc(OC)c(OC)c5)c4=O)OC2=O)[C@@]3(OC(C)=O)CC1 | > 30 µM | > 5 µM |  |
| COC(=O)C1=CC[C@@]23CC[C@@H]([C@@](C)(/C=C/C=C(\C)C(=O)NCc4cn(-c5ccc(Cl)c(Cl)c5)nn4)OC2=O)[C@@]3(OC(C)=O)CC1 | > 30 µM | > 5 µM |  |
| COC(=O)C1=CC[C@@]23CC[C@@H]([C@@](C)(/C=C/C=C(\C)C(=O)OCc4cn(Cc5ccc(F)cc5)nn4)OC2=O)[C@@]3(OC(C)=O)CC1 | > 30 µM | 3.89 µM |  |
| COC(=O)C1=CC[C@@]23CC[C@@H]([C@@](C)(/C=C/C=C(\C)C(=O)OCc4nnc(-c5ccccc5)o4)OC2=O)[C@@]3(OC(C)=O)CC1 | > 30 µM | > 5 µM |  |
| COC(=O)C1=CC[C@@]23CC[C@@H]([C@@](C)(/C=C/C=C(\C)C(=O)OCCn4ncn(-c5ccc(Cl)c(Cl)c5)c4=O)OC2=O)[C@@]3(OC(C)=O)CC1 | > 30 µM | 1.17 µM |  |
| C[C@H]1[C@H](C)CC[C@]2(C(=O)OCCCn3ncn(-c4ccccc4)c3=O)CC[C@]3(C)C(=CC[C@@H]4[C@@]5(C)CCC(O)C(C)(C)[C@@H]5CC[C@]43C)[C@H]12 (stereo partly specified) |  |  | IC50 [3]: 36.9 µM |
| COC(=O)C1=CC[C@@]23CC[C@@H]([C@@](C)(/C=C/C=C(\C)C(=O)OCc4cn(-c5ccc(OC)cc5)nn4)OC2=O)[C@@]3(OC(C)=O)CC1 | > 30 µM | 2.18 µM |  |
| COC(=O)C1=CC[C@@]23CC[C@@H]([C@@](C)(/C=C/C=C(\C)C(=O)OCC(=O)Nc4ccc(Cl)cc4)OC2=O)[C@@]3(OC(C)=O)CC1 | > 30 µM | 4.38 µM |  |
| COC(=O)C1=CC[C@@]23CC[C@@H]([C@@](C)(/C=C/C=C(\C)C(=O)OCc4cc(-c5ccc(OC)cc5)no4)OC2=O)[C@@]3(OC(C)=O)CC1 | > 30 µM | > 5 µM |  |
| COC(=O)C1=CC[C@@]23CC[C@@H]([C@@](C)(/C=C/C=C(\C)C(=O)OCc4cn(Cc5ccc(Cl)cc5)nn4)OC2=O)[C@@]3(OC(C)=O)CC1 | > 30 µM | 1.43 µM |  |
| COC(=O)C1=CC[C@@]23CC[C@@H]([C@@](C)(/C=C/C=C(\C)C(=O)OCCn4ncn(-c5ccc(F)cc5)c4=O)OC2=O)[C@@]3(OC(C)=O)CC1 | > 30 µM | 2.38 µM |  |
| COC(=O)C1=CC[C@@]23CC[C@@H]([C@@](C)(/C=C/C=C(\C)C(=O)OCc4cc(-c5ccccc5)no4)OC2=O)[C@@]3(OC(C)=O)CC1 | > 30 µM | > 5 µM |  |
